Experimental data as given in patent publication US20260027116A1, “Methods of Treating Chronic Graft-Versus-Host Disease Following Allogeneic Hematopoietic Stem Cell Transplantation” (Kadmon Corporation, LLC, priority 2022, published 2026).

Key:
CYP1A2 = target: T1, CYP1A2 (Homo sapiens, UniProt P05177); assay: enzyme inhibition in vitro; format: in vitro ADME
T1 sequence (P05177 1-516): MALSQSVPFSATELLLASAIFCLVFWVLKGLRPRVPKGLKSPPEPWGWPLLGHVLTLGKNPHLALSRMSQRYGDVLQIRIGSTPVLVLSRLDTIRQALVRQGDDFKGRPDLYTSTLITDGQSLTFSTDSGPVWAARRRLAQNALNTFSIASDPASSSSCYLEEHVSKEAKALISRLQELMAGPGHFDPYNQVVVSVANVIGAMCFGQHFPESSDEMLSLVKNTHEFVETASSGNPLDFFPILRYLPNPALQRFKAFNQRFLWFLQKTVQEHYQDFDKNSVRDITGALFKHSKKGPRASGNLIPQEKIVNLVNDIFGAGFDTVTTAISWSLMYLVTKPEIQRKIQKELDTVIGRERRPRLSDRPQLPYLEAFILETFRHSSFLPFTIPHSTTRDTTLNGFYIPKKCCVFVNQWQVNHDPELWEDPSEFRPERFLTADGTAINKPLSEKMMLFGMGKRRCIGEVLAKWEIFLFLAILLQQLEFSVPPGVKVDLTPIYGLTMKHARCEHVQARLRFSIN

UGT1A1 = target: T2, UGT1A1 (Homo sapiens, UniProt P22309); assay: enzyme inhibition in vitro; format: in vitro ADME
T2 sequence (P22309 26-533): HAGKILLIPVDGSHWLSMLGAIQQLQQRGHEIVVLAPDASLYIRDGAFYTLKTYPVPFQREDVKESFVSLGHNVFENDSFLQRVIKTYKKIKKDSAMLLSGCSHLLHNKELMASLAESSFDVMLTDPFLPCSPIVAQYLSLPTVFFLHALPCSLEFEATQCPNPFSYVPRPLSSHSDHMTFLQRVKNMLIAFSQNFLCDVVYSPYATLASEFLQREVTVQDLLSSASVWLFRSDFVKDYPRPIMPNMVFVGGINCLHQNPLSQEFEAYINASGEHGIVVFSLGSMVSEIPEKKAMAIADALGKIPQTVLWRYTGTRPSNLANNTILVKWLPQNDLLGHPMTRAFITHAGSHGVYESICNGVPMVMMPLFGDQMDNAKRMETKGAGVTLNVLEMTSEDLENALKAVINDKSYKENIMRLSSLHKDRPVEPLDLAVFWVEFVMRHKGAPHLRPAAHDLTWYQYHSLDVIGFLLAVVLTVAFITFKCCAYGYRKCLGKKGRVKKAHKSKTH

CC(C)NC(=O)COc1cccc(-c2nc(Nc3ccc4[nH]ncc4c3)c3ccccc3n2)c1 [Belumosudil, 2-{3-[4-(1H-indazol-5-ylamino)-2-quinazolinyl]phenoxy}-N-(propan-2-yl) acetamide]
inhibition of CYP1A2 (CYP1A2): inhibitor | inhibition of UGT1A1 (UGT1A1): inhibitor
